# Laboratory results from US20200016159A1, “N3-CYCLICALLY SUBSTITUTED THIENOURACILS AND USE THEREOF” (Bayer Aktiengesellschaft, priority 2016, published 2020).
# Target: T1, human adenosine A2b receptor (Homo sapiens, UniProt P29275)
# T1 sequence (P29275 1-332): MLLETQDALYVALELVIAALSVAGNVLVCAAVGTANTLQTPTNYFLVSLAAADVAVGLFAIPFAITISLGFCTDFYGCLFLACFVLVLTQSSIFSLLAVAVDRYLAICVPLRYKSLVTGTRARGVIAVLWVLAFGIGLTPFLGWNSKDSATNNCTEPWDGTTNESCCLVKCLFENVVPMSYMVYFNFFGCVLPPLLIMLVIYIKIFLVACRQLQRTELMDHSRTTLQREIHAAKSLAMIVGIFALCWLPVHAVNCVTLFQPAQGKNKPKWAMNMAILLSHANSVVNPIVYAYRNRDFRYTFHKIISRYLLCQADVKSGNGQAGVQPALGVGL
# Experiment: Cellular in vitro reporter gene test for A2b receptor activity (antagonism of NECA)
# Format: cell-based
# Design: expressed in transfected cells; host or cells: CHO-K1 (Chinese hamster ovary) with CRE-luciferase reporter
# Conditions: recombinant CHO-K1 cells, CRE-luciferase reporter, co-incubation with EC50 concentration of NECA, 3 hours
# Method in brief: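 Antagonism measured as block of NECA-induced, cAMP/CRE-dependent luciferase expression in recombinant A2b CHO-K1 cells. NECA used at the EC50 set in a pre-experiment on each test day; luminescence detected after 3 h. Reported as IC50, partly averaged and rounded to two significant figures.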
row,SMILES,IC50 [nM]
1,"COCCn1c(=O)n(C2CC2C)c(=O)c2c(C)c(CN3CCNC3=O)sc21 (single isomer, unassigned) [Example 259, 1-(2-Methoxyethyl)-5-methyl-3-(2-methylcyclopropyl)-6-[(2-oxoimidazolidin-1-yl)methyl]thieno[2,3-d]pyrimidine-2,4(1H,3H)-dione]",4.1
2,"Cc1c(CN2CCNC2=O)sc2c1c(=O)n(C1(C)CC1)c(=O)n2CCOC(C)C [Example 79, 1-(2-Isopropoxyethyl)-5-methyl-3-(1-methylcyclopropyl)-6-[(2-oxoimidazolidin-1-yl)methyl]thieno[2,3-d]pyrimidine-2,4(1H,3H)-dione]",110
3,CCC1CC1n1c(=O)c2c(C)c(Cn3nc[nH]c3=O)sc2n(CCOC)c1=O (racemic) [Example 303],71
4,"Cc1c(CN2CCNC2=O)sc2c1c(=O)n(C1CC1C)c(=O)n2CC1CCOC1 (single isomer, unassigned) [Example 291, 5-Methyl-3-(2-methylcyclopropyl)-6-[(2-oxoimidazolidin-1-yl)methyl]-1-(tetrahydrofuran-3-ylmethyl)thieno[2,3-d]pyrimidine-2,4(1H,3H)-dione]",19
5,"Cc1c(CN2CCNC2=NC#N)sc2c1c(=O)n(C1CC3(CCC3)C1)c(=O)n2CCC(F)(F)F [Example 175, [1-{[5-Methyl-2,4-dioxo-3-(spiro[3.3]hept-2-yl)-1-(3,3,3-trifluoropropyl)-1,2,3,4-tetrahydrothieno[2,3-d]pyrimidin-6-yl]methyl}imidazolidin-2-ylidene]cyanamide]",18
6,"Cc1c(CN2CCNC(=O)C2=O)sc2c1c(=O)n(C1(C)CCC1)c(=O)n2CCC(F)(F)F [Example 137, 6-[(2,3-Dioxopiperazin-1-yl)methyl]-5-methyl-3-(1-methylcyclobutyl)-1-(3,3,3-trifluoropropyl)thieno[2,3-d]pyrimidine-2,4(1H,3H)-dione]",77
7,"CCC1CC1n1c(=O)c2c(C)c(Cn3nc[nH]c3=O)sc2n(CCOC)c1=O (single isomer, unassigned) [Example 304, 3-(2-Ethylcyclopropyl)-1-(2-methoxyethyl)-5-methyl-6-[(5-oxo-4,5-dihydro-H-1,2,4-triazol-1-yl)methyl]thieno[2,3-d]pyrimidine-2,4(1H,3H)-dione]",350
8,"Cc1c(Cn2nc[nH]c2=O)sc2c1c(=O)n([C@H]1C[C@@H]1C)c(=O)n2CC(F)(F)F [Example 321, 5-Methyl-3-[(1S,2S)-2-methylcyclopropyl]-6-[(5-oxo-4,5-dihydro-1H-1,2,4-triazol-1-yl)methyl]-1-(2,2,2-trifluoroethyl)thieno[2,3-d]pyrimidine-2,4(1H, 3H)-dione]",17
9,"Cc1c(Cn2nc[nH]c2=O)sc2c1c(=O)n(C1CC1)c(=O)n2CC(F)F [Example 199, 3-Cyclopropyl-1-(2,2-difluoroethyl)-5-methyl-6-[(5-oxo-4,5-dihydro-H-1,2,4-triazol-1-yl)methyl]thieno[2,3-d]pyrimidine-2,4(1H,3H)-dione]",130
10,"Cc1c(CN2CCNC2=O)sc2c1c(=O)n([C@H]1C[C@@H]1C)c(=O)n2CC1CCC(F)(F)C1 (single isomer, unassigned) [Example 257]",6.8
11,"Cc1c(Cn2nc[nH]c2=O)sc2c1c(=O)n(C1CC(F)(F)C1)c(=O)n2CCC(F)(F)F [Example 124, 3-(3,3-Difluorocyclobutyl)-5-methyl-6-[(5-oxo-4,5-dihydro-H-1,2,4-triazol-1-yl)methyl]-1-(3,3,3-trifluoropropyl)thieno[2,3-d]pyrimidine-2,4(1H,3H)-dione]",26
12,"Cc1c(CN2CCNC2=NC#N)sc2c1c(=O)n(C1CC1)c(=O)n2CCC(F)(F)F [Example 11, [1-{[3-Cyclopropyl-5-methyl-2,4-dioxo-1-(3,3,3-trifluoropropyl)-1,2,3,4-tetrahydrothieno[2,3-d]pyrimidin-6-yl]methyl}imidazolidin-2-ylidene]cyanamide]",3.3
13,"COCCn1c(=O)n(C2CC2)c(=O)c2c(C)c(Cn3nc[nH]c3=O)sc21 [Example 29, 3-Cyclopropyl-1-(2-methoxyethyl)-5-methyl-6-[(5-oxo-4,5-dihydro-1H-1,2,4-triazol-1-yl)methyl]thieno[2,3-d]pyrimidine-2,4(1H,3H)-dione]",57
14,"Cc1c(Cn2nc[nH]c2=O)sc2c1c(=O)n([C@H]1C[C@@H]1C)c(=O)n2CCC(F)(F)F [Example 323, 5-Methyl-3-[(1S,2S)-2-methylcyclopropyl]-6-[(5-oxo-4,5-dihydro-1H-1,2,4-triazol-1-yl)methyl]-1-(3,3,3-trifluoropropyl)thieno[2,3-d]pyrimidine-2,4(1H,3H)-dione]",3.1
15,"COCCn1c(=O)n(C2CCC2)c(=O)c2c(C)c(CN3CCNC3=NC(=O)OC)sc21 [Example 117, Methyl [1-{[3-cyclobutyl-1-(2-methoxyethyl)-5-methyl-2,4-dioxo-1,2,3,4-tetrahydrothieno[2,3-d]pyrimidin-6-yl]methyl}imidazolidin-2-ylidene]carbamate]",1.3
16,"COCCn1c(=O)n(C2CC2OC)c(=O)c2c(C)c(CN3CCNC3=O)sc21 (racemic) [Example 306, 3-(2-Methoxycyclopropyl)-1-(2-methoxyethyl)-5-methyl-6-[(2-oxoimidazolidin-1-yl)methyl]thieno[2,3-d]pyrimidine-2,4(1H,3H)-dione]",16
17,"Cc1c(CN2CCNC2=S)sc2c1c(=O)n(C1CC1)c(=O)n2CCCF [Example 6, 3-Cyclopropyl-1-(3-fluoropropyl)-5-methyl-6-[(2-thioxoimidazolidin-1-yl)methyl]thieno[2,3-d]pyrimidine-2,4(1H,3H)-dione]",12
18,"Cc1c(CN2CCNC2=NC#N)sc2c1c(=O)n(C1CC1)c(=O)n2CCCF [Example 7, [1-{[3-Cyclopropyl-1-(3-fluoropropyl)-5-methyl-2,4-dioxo-1,2,3,4-tetrahydrothieno[2,3-d]pyrimidin-6-yl]methyl}imidazolidin-2-ylidene]cyanamide]",18
19,"Cc1c(CN2CCNC2=O)sc2c1c(=O)n(C1CC1C)c(=O)n2CCCC(F)(F)F (racemic) [Example 242, 5-Methyl-3-(2-methylcyclopropyl)-6-[(2-oxoimidazolidin-1-yl)methyl]-1-(4,4,4-trifluorobutyl)thieno[2,3-d]pyrimidine-2,4(1H,3H)-dione]",2.1
20,"Cc1c(CN2CCNC2=O)sc2c1c(=O)n(C1CC1)c(=O)n2CCC(F)(F)F [Example 9, 3-Cyclopropyl-5-methyl-6-[(2-oxoimidazolidin-1-yl)methyl]-1-(3,3,3-trifluoropropyl)thieno[2,3-d]pyrimidine-2,4(1H,3H)-dione]",1.5
21,"Cc1c(CN2CCNC2=O)sc2c1c(=O)n(C1CC1C)c(=O)n2CCC(F)(F)F (racemic) [Example 93, 5-Methyl-3-(2-methylcyclopropyl)-6-[(2-oxoimidazolidin-1-yl)methyl]-1-(3,3,3-trifluoropropyl)thieno[2,3-d]pyrimidine-2,4(1H,3H)-dione]",1.8
22,"Cc1c(Cn2nc[nH]c2=O)sc2c1c(=O)n(C1CC1)c(=O)n2CC1CC(F)(F)C1 [Example 206, 3-Cyclopropyl-1-[(3,3-difluorocyclobutyl)methyl]-5-methyl-6-[(5-oxo-4,5-dihydro-1H-1,2,4-triazol-1-yl)methyl]thieno[2,3-d]pyrimidine-2,4(1H,3H)-dione]",6.2
